# According to patent US20200338125A1, “METHOD FOR EXPANSION OF LYMPHOCYTES” (LUDWIG INSTITUTE FOR CANCER RESEARCH LTD, priority 2017, published 2020):
# Test system: TILs of patient CTE-0009
# Experiment: IFNγ-ELISPOT of TILs from draining lymph nodes, patient CTE-0009
# Assay type: cell-based, human
# Conditions: FIG. 5; day 14; conventional and primed cultures from draining lymph nodes
# Protocol: Both “conventional” and “primed” TILs of patient CTE-0009 were generated from a single cell suspension of draining lymph nodes, following the methods described herein. Each culture was interrogated at day 14 by IFNγ-ELISPOT for the presence of neo-antigen T cell reactivities directed against one of the 4 predicted peptides and against the corresponding wild-type (wt) peptides. […] PHA was used at 1 μg/ml.
# T cell reactivity against predicted neo-antigens was tested by IFNγ ELISpot on pre-REP TILs. Positivity was confirmed in ≥2 independent experiments.
sequence,measurement,value
TPINPRRCL [wt],neo-antigen T cell reactivities directed against the peptide,not
